Consider two molecules from patent US20250154212A1, “METHOD OF DISRUPTING MEMORY AND LIPOPEPTIDE FOR USE IN SUCH METHOD” (The Research Foundation for The State University of New York, priority 2023, published 2025).

For the assay, the system named is late-LTP in hippocampal slices of PKMζ-null mice. The assay can be described thus: Late-LTP recording (fEPSP) in hippocampal slices of PKMζ-null mice. In kind it is cell-based, mouse. The note with it: for effect on late-LTP, tetanized pathway: 10 μM applied 3 h post-tetanization; for effect on baseline synaptic transmission, untetanized pathway: 10 μM in bath. How it is done:
Acute mouse hippocampal slices (450 μm) were prepared as previously described (17, 73). Hippocampi from 2-6-month-old male C57/B6 or PKM ζ-null mice as previously described (17) were dissected, bathed in ice-cold dissection buffer, and sliced with a McIlwain tissue slicer in a cold room (4° C.). The dissection buffer contained (in mM): 125 NaCl, 2.5 KCl, 1.25 NaH2PO4, 26 NaHCO3, 11 glucose, 10 MgCl2, and 0.5 CaCl2), and was bubbled with 95% O2/5% CO2 to maintain pH at 7.4. After dissection the slices were immediately transferred into an Oslo-type interface recording chamber (31.5±1° C.) (73). The recording superfusate consisted of (in mM): 118 NaCl, 3.5 KCl, 2.5 CaCl2), 1.3 MgSO4, 1.25 NaH2PO4, 24 NaHCO3, and 15 glucose, bubbled with 95% O2/5% CO2, with a flow rate of 0.5 ml/min. In a subset of experiments a custom-made recirculation system employing piezoelectric pumps was used for recycling the superfusate (Bartels Mikrotechnik GmbH, Dortmund, Germany) (73).
Field EPSPs were recorded with a glass extracellular recording electrode (2-5 M (2) placed in the CA1 st. radiatum, and concentric bipolar stimulating electrodes (CBBRE75 and 30200; FHC, Bowdoin, ME) were placed on either side within CA3 or CA1. Test stimulation rate was once every 30 sec, alternating every 15 sec between stimulating electrodes. Based upon a pre-established exclusion criterion, a slice was not used if fEPSP spike threshold was <2 mV on initial input-output analysis. Pathway independence was confirmed by the absence of paired-pulse facilitation between the two pathways. A single stimulating electrode was used for PLA/immunocytochemistry with a test stimulation rate of once every 30 sec. The high-frequency stimulation, optimized to produce a relatively rapid onset of protein synthesis-dependent late-LTP (74), consisted of two 100 Hz-1 s tetanic trains, at 25% of spike threshold, spaced 20 sec apart. The maximum slope of the rise of the fEPSP was analyzed on a PC using the WinLTP data acquisition program (75).
Replicates are biological because there is only one measurement for each sample. Drug/vehicle comparisons were performed blindly. Sample sizes vary for the different experimental approaches (biochemistry, slice physiology, and behavior) and were established by power analyses based on effect size estimates from published work or preliminary experiments. The observed effect sizes for binary comparisons are reported as Cohen's d and as η^2p for ANOVA effects. Multi-factor comparisons were performed using ANOVA with repeated measures, as appropriate. Two-population Student's/tests were performed to compare protein immunofluorescence intensity between control and potentiated hippocampal slices. For LTP experiments, the responses were first normalized to the mean of the 30 min period prior to tetanization (or equivalent in control pathways), and then the means over 5 min periods were used for statistical comparisons (e.g., pre-tetanization, beginning and end of drug application). Paired Student's t tests were used to compare the change in the potentiated response at time points at the beginning and end of drug application. The degrees of freedom for the critical t values of the/tests and the F values of the ANOVAs are reported as subscripts. Post-hoc multiple comparisons were performed by Newman-Keuls tests as appropriate. Statistical significance was accepted at P<0.05 or appropriate Bonferroni correction for multiple comparisons. […]

“Also recorded” adds a separate entry of the source. Where no end group is shown, it is not given here. The star is where a group is joined. Myristoyl = CCCCCCCCCCCCCC(=O)*

For the molecule `O=S(=O)(O)c1cc(O)c2c(S(=O)(=O)O)cc(S(=O)(=O)O)cc2c1` [ζ-stat, 1-naphthol-3,6,8-trisulphonic acid], the “effect on late-LTP, tetanized pathway” value is given as “has no effect on late-LTP maintenance” and the “effect on baseline synaptic transmission, untetanized pathway” value was “has no effect on late-LTP or baseline synaptic transmission”. Also, the “effect on late-LTP, tetanized pathway” value (listed as z-stat) is “has no effect on late-LTP”.

With “myr-N-FVRNSLERRSVRMKRPS-C (Myristoyl-FVRNSLERRSVRMKRPS) [K-ZAP]”, the “effect on late-LTP, tetanized pathway” value is “has no effect on late-LTP maintenance; also recorded: has no effect on PKMz-null-LTP” and the “effect on baseline synaptic transmission, untetanized pathway” value is “no effect”.
